Results: paper PMC4865847, “Putative histidine kinase inhibitors with antibacterial effect against multi-drug resistant clinical isolates identified by in vitro and in silico screens” (Scientific Reports, 2016)
Converted amounts (≈) assume the structure as drawn.

Assays:
[1] = tested on: Gram negative E. coli DC2; design: method as in PMID 25531939; details: cited from earlier work
[2] = tested on: Gram-positive B. subtilis; design: method as in PMID 25531939; details: cited from earlier work
S. pneumoniae VicK = tested on: S. pneumoniae VicK; design: method as in PMID 25531939; details: cited from earlier work
S. pneumoniae WalK = target: T1, S. pneumoniae WalK (Streptococcus pneumoniae, UniProt Q8DPL8); experiment: In vitro autophosphorylation kinase assay with γ-32P-ATP, WalK; type: biochemical
T1 construct: WalK (amino acids from 208 to 449); N-terminal His6-3C site of vector pOPINF (own knowledge of the vector); made in house; host or cells: E. coli RIL
T1 sequence (Q8DPL8 208-449): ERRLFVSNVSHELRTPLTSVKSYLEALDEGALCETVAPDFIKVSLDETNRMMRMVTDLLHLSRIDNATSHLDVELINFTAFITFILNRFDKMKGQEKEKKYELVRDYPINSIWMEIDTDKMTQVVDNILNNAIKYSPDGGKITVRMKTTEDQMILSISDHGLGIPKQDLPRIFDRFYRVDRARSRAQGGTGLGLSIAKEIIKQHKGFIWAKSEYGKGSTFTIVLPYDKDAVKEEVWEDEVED
Method in brief: (§1)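 Autophosphorylation, initiated with γ-32P-ATP (0.1 μCi/μl; 0.03–0.06 μM ATP final), quenched with SDS/EDTA sample buffer, resolved by SDS-PAGE and quantified by phosphor-imaging. ≈4 μM kinase, fragments up to 20 mM, pH 8.5 Tris buffer with Mg2+; DMSO-matched ligand-free controls.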

[3] = target: T2, HK WalK (DHp and CA domain) (Streptococcus pneumoniae, UniProt Q8DPL8); experiment: Differential scanning fluorimetry (DSF), WalK; type: binding
T2 construct: WalK (amino acids from 208 to 449); N-terminal His6-3C site of vector pOPINF (own knowledge of the vector); made in house; host or cells: E. coli RIL
T2 sequence (Q8DPL8 208-449): as above
Method: (§2) To monitor protein unfolding, the fluorescent dye Sypro orange was used[26]. Differential scanning fluorimetry (DSF) experiments were conducted in the iCycleriQ Real Time Detection System (Bio-Rad, Hercules, CA). Solutions of 20 μl of 0.1 mg/ml protein (final concentration), 200 μM fragment cocktails or individual fragments (final concentration), 10X sypro orange (final concentration) and buffer (100 mM TrisCl pH 8, 150 mM NaCl) were added to the wells of the 96-well iCycler iQ PCR plate. The plate was heated from 20 to 85 or 99 °C at a heating rate of 1 °C/min. The fluorescent intensity was measured with Ex/Em: 490/530 nm. Prism GraphPad v.5 was used for curve fitting and statistical analysis.

HK NblS (CA domain) = experiment: Differential scanning fluorimetry (DSF), NblS; type: binding, Synechococcus sp. PCC 7942
Method: as §2

E. coli EnvZ = target: T3, E. coli EnvZ (Escherichia coli, UniProt P0AEJ4); experiment: Aggregation analysis by native-PAGE, EnvZ; details: 2 mM, 10% DMSO
T3 construct: The catalytic portion (DHp and CA domain) of E. coli PhoR (PhoR^E), E. coli EnvZ; made in house; host or cells: E. coli RIL
T3 sequence (P0AEJ4 240-440): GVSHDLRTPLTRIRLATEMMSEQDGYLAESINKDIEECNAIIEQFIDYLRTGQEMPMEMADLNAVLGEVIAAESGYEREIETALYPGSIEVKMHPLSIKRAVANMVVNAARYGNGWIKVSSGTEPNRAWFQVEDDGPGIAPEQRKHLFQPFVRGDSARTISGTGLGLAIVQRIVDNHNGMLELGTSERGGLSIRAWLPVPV
Method: (§3) E. coli PhoR and EnvZ, and S. aureus PhoR ([…], final concentration) were prepared in kinase buffer. […] DMSO in the assays was maintained to a final concentration 10% (v/v). After 30 min of incubation at room temperature Native polyacrylamide gel electrophoresis (Native-PAGE) loading buffer was added and samples loaded. Coomassie blue staining was used for protein visualization.

E. coli PhoR (PhoR^E) [4] = target: T4, E. coli PhoR (PhoR^E) (Escherichia coli, UniProt P08400); experiment: Aggregation analysis by native-PAGE, PhoR^E; details: 2 mM (S5 and S6 5 mM), 10% DMSO
T4 construct: The catalytic portion (DHp and CA domain) of E. coli PhoR (PhoR^E); made in house; host or cells: E. coli RIL
T4 sequence (P08400 210-425): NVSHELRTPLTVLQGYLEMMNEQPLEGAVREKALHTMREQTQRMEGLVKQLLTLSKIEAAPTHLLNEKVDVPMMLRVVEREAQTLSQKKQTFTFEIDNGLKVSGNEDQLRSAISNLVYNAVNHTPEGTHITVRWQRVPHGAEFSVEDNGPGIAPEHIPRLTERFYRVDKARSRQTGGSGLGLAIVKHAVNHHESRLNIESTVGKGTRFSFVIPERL
Method: as §3

Escherichia coli = experiment: Antibacterial susceptibility testing (MIC/MBC), E. coli; type: cell-based; details: Escherichia coli, strain CFT 073; read-out: MIC E. coli CFT 073
Method: (§4) Minimal inhibitory concentrations (MICs) were determined following a standard double-dilution method. […] For S. pneumoniae MICs were determined by adapting the standard double-dilution method to anaerobic conditions and of this microorganism (use of Todd Hewitt Yeast extract with 200 U/mL of catalase and continuous monitoring of growth).

E. coli PhoR (PhoR^E) [5] = target: T4, E. coli PhoR (PhoR^E); experiment: In vitro autophosphorylation kinase assay with γ-32P-ATP, PhoR^E; type: biochemical; details: autophosphorylation, one time point (30 sec), 10% DMSO; read-out: IC50 PhoR^E
Method in brief: as §1

S. aureus PhoR (PhoR^S) = S. aureus PhoR (PhoR^S) (Staphylococcus aureus, UniProt Q2FXN7); experiment: Aggregation analysis by native-PAGE, PhoR^S; details: 2 mM (S5 and S6 5 mM), 10% DMSO
S. aureus PhoR (PhoR^S), sequence (Q2FXN7 entry or part of it): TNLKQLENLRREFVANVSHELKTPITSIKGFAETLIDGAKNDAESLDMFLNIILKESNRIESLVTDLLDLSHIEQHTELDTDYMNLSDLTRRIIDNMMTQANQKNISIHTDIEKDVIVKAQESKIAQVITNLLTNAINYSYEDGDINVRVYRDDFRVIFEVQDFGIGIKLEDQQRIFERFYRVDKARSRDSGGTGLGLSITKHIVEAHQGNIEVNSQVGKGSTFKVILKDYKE
Method: as §3

[6] = tested on: Staphylococcus epidermidis; experiment: Antibacterial susceptibility testing (MIC/MBC), S. epidermidis; type: cell-based; details: Staphylococcus epidermidis, DSM20044, strain DSM 20044; read-out: MIC S. epidermidis DSM 20044
Method: as §4

Staphylococcus aureus = experiment: Antibacterial susceptibility testing (MIC/MBC), S. aureus; type: cell-based; details: Staphylococcus aureus, DSM20231, strain DSM 20231
Method: as §4

S. epidermidis YycG = tested on: S. epidermidis YycG; design: method as in PMID 24737057; details: read-out: IC50 S. epidermidis YycG (WalK) autophosphorylation; cited from earlier work
Gram positive strains = details: cited from earlier work
E. coli = tested on: E. coli; design: method as in PMID 25561178; details: cited from earlier work

Compound: Nc1nc2ccc(Oc3ccc4nc(N)sc4c3)cc2s1 [Compound 11]
- MIC Gram negative [1]: ≥ 32 µg/mL
- MICs for the Gram negative E. coli DC2 [1]: 32 to 64 µg/mL
- MIC Gram positive [2]: ≥ 49 µg/mL
- MICs for the Gram-positive B. subtilis [2]: 49 to 64 µg/mL
- IC50 (S. pneumoniae VicK): 75 µM

Compound: Oc1ccc2c(c1)[nH]c1ccccc12 [F2, 2-hydroxy-carbazole]
- IC50 (S. pneumoniae WalK; autophosphorylation, one time point (30 sec), 10% DMSO, read-out: IC50 WalK): > 2000 µM
- inhibitory capacity for WalK autophosphorylation activity (S. pneumoniae WalK; single concentration 5 mM, 30 sec): weak inhibitory capacity
- increase of WalK Tm [3]: 3.9 °C
- increase of NblS Tm (HK NblS (CA domain)): 2.2 °C
- HK aggregation, EnvZ (E. coli EnvZ): do not cause HK aggregation
- HK aggregation, PhoR^E (E. coli PhoR (PhoR^E) [4]): do not cause HK aggregation
- MIC (Escherichia coli): > 500 µg/mL
- IC50 (E. coli PhoR (PhoR^E) [5]): 300 µM
- HK aggregation, PhoR^S (S. aureus PhoR (PhoR^S)): do not cause HK aggregation
- MIC [6]: > 500 µg/mL
- MBC (Staphylococcus aureus; read-out: MBC S. aureus DSM 20231): > 500 µg/mL
- MIC (Staphylococcus aureus; read-out: MIC S. aureus DSM 20231): 31 µg/mL (≈ 169 µM)

Compound: O=C(O)c1ccc(-c2ccc(/C=C3\S/C(=N\c4ccccc4)N(c4ccc(F)cc4)C3=O)s2)cc1 [H2-81]
- IC50 (S. epidermidis YycG): 24 µM
- MIC Gram positive (Gram positive strains): ≥ 0.75 µg/mL

Compound: teixobactin
- antibacterial effect (MIC) against E. coli (E. coli): 2 to 25 µg/mL
